# Source: US20180282339A1 (OLON S.P.A., priority 2015, published 2018)
# Conditions: conditions not specified at this place, b45 (heating at 60-120 ° C. for 1-12 hours gives amorphous form)
# Description: In particular the following tests have been made: • stability at 25° C./40% Relative Humidity for 7 days • stability at 40° C./75% Relative Humidity for 7 days • stability at 25° C./60% Relative Humidity for 7 days • stability at 60° C./40% Relative Humidity for 7 days
smiles,measurement,value
"C=CC(=O)N1CCC[C@@H](n2nc(-c3ccc(Oc4ccccc4)cc3)c3c(N)ncnc32)C1 [Form L, 1-[(3R)-3-[4-amino-3-(4-phenoxyphenyl)-1H-pyrazolo[3,4-d]pyrimidin-1-yl]piperidin-1-yl]prop-2-en-1-one]",solid form conversion in some conditions,converts in Form A or in the amorphous form
